Activity calls are given as the source filed them. The rule behind the calls is not given here.
Assays:
[1] = target: T1, Protein kinase C zeta type (Homo sapiens, UniProt Q05513); test: Inhibition of recombinant GST-fused PKCzeta (unknown origin) expressed in HEK293 cells using myelin basic protein as substrate measured after 40 mins in presence of [gamma32P]ATP by phosphorimaging analysis
T1 sequence (Q05513 whole entry): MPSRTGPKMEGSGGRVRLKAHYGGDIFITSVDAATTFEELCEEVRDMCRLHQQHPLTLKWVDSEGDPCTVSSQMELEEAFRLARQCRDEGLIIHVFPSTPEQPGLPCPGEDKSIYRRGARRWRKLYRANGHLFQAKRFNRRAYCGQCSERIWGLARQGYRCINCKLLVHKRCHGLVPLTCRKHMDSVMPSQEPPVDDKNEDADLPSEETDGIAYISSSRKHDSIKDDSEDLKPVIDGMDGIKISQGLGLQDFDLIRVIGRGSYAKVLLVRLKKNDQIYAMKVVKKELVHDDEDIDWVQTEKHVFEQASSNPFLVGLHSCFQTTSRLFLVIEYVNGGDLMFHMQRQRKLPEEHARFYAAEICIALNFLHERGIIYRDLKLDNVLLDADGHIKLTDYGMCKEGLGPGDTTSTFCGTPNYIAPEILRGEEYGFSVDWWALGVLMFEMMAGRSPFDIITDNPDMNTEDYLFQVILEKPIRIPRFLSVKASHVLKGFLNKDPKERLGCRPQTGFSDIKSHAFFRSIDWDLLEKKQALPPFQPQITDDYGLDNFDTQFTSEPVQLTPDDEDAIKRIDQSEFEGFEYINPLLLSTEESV

RAW264.7 [2] = test: Inhibition of LPS-induced nitric oxide production in mouse RAW264.7 cells at 7.5 uM measured after 20 hrs by griess assay relative to control; format: functional; settings: RAW264.7, 20 h
RAW264.7 [3] = test: Inhibition of LPS-induced nitric oxide production in mouse RAW264.7 cells measured after 20 hrs by griess assay; format: functional, cell-based; settings: RAW264.7, 20 h
[4] = target: T2, Protein kinase C iota type (Homo sapiens) (UniProt P41743); test: Inhibition of recombinant GST-fused PKCiota (unknown origin) expressed in HEK293 cells at 20 uM using myelin basic protein as substrate measured after 40 mins in presence of [gamma32P]ATP by phosphorimaging analysis relative to control
T2 sequence (whole entry): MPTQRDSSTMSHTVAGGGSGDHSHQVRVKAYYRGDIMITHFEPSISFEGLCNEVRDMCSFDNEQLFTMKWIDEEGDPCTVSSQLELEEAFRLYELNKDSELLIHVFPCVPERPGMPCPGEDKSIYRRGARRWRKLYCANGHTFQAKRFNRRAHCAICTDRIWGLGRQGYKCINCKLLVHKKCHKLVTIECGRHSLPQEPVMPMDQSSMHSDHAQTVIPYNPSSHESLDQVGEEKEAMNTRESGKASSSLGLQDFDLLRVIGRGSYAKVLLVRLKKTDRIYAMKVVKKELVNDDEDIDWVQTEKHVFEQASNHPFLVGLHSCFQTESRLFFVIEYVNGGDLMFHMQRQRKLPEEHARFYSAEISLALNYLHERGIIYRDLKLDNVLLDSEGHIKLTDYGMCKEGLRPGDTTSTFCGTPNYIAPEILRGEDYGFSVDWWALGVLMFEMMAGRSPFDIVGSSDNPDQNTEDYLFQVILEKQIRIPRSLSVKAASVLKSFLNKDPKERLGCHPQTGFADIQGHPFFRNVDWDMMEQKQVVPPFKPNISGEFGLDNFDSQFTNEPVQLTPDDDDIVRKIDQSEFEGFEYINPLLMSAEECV

[5] = target: Protein kinase C alpha type (Homo sapiens) (UniProt P17252); test: Inhibition of PKCalpha (unknown origin) at 10 uM
[6] = target: Protein kinase C beta type (Homo sapiens) (UniProt P05771); test: Inhibition of PKCbeta1 (unknown origin) at 10 uM
[7] = target: Protein kinase C beta type (Homo sapiens) (UniProt P05771); test: Inhibition of PKCbeta2 (unknown origin) at 10 uM
[8] = target: Protein kinase C gamma type (Homo sapiens) (UniProt P05129); test: Inhibition of PKCgamma (unknown origin) at 10 uM
[9] = target: Protein kinase C delta type (Homo sapiens) (UniProt Q05655); test: Inhibition of PKCdelta (unknown origin) at 10 uM
[10] = target: T3, Protein kinase C epsilon type (Homo sapiens) (UniProt Q02156); test: Inhibition of PKCepsilon (unknown origin) at 10 uM
T3 sequence (whole entry): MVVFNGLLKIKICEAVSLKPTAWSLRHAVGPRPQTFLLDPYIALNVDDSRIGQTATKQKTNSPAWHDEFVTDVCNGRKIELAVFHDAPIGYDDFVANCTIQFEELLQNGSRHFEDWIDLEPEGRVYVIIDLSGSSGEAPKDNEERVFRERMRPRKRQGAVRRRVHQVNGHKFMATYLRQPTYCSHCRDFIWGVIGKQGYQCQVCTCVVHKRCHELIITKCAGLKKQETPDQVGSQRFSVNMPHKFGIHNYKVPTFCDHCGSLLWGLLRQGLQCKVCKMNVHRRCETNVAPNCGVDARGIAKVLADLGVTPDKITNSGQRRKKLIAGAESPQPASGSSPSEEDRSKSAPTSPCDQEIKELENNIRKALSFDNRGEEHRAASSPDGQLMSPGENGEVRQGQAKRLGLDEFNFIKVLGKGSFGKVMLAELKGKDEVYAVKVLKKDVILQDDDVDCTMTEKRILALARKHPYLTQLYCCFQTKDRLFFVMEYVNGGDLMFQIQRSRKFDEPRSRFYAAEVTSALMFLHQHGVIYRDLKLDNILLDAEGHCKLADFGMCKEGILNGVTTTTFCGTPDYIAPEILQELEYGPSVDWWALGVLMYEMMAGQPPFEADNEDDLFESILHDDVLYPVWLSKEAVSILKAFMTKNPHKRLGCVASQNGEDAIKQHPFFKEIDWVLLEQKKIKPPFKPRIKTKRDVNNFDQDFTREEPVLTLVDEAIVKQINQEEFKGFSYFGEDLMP

[11] = target: Protein kinase C eta type (Homo sapiens) (UniProt P24723); test: Inhibition of PKCeta (unknown origin) at 10 uM
[12] = target: Protein kinase C theta type (Homo sapiens) (UniProt Q04759); test: Inhibition of PKCtheta (unknown origin) at 10 uM
[13] = target: Serine/threonine-protein kinase N1 (Homo sapiens) (UniProt Q16512); test: Inhibition of PKN1 (unknown origin) at 10 uM
[14] = target: T4, 3-phosphoinositide-dependent protein kinase 1 (Homo sapiens) (UniProt O15530); test: Inhibition of PDK1 (unknown origin) at 10 uM
T4 sequence (whole entry): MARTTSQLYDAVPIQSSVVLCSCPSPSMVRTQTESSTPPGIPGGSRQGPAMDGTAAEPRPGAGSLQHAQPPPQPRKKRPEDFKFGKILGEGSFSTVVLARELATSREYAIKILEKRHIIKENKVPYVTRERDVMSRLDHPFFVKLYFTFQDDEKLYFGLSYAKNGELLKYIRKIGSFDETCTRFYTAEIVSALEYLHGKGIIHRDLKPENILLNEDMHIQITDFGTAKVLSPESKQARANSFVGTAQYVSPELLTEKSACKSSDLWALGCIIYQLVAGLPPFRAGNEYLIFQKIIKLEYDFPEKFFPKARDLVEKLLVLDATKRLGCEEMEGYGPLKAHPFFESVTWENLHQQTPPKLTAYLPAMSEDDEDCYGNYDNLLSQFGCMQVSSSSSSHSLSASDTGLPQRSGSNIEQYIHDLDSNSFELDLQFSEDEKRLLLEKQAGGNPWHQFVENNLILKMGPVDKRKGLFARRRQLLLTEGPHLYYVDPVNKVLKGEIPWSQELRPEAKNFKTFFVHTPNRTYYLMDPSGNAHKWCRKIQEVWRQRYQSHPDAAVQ

[15] = Cytotoxicity against mouse RAW264.7 cells assessed as live cells at 7.5 uM after 20 hrs by MTT assay relative to control; format: cell-based; settings: read-out: Activity
[16] = target: Protein kinase C zeta type (Homo sapiens, UniProt Q05513, V297L); test: Inhibition of recombinant GST-fused PKCzeta Val297Leu mutant (unknown origin) expressed in HEK293 cells using myelin basic protein as substrate measured after 40 mins in presence of [gamma32P]ATP by phosphorimaging analysis
Homo sapiens = species: Homo sapiens; test: Selectivity ratio of IC50 for recombinant GST-fused PKCzeta Val297Leu mutant (unknown origin) expressed in HEK293 cells to IC50 for recombinant GST-fused PKCzeta (unknown origin) expressed in HEK293 cells; format: cell-based

Chain of Protein kinase C zeta type (Homo sapiens, UniProt Q05513, V297L) (Q05513 whole entry V297L, the tested form may be a part): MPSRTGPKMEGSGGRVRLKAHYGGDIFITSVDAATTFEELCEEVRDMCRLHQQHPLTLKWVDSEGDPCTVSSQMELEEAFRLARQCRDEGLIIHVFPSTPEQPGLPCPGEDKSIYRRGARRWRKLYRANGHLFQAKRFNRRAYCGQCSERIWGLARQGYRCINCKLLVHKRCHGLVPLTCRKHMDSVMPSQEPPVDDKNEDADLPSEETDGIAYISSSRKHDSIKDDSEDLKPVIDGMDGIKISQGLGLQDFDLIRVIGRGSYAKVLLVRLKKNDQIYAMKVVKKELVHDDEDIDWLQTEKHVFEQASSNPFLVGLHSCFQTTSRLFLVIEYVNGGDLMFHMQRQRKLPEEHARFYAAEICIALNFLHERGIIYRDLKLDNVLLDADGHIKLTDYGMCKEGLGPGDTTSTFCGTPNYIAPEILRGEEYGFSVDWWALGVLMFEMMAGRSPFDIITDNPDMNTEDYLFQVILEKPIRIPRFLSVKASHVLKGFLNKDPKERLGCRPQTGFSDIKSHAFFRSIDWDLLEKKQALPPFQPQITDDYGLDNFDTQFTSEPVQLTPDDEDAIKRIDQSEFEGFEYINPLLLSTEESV
Chain of Protein kinase C beta type (Homo sapiens) (P05771 2-671 limits assumed): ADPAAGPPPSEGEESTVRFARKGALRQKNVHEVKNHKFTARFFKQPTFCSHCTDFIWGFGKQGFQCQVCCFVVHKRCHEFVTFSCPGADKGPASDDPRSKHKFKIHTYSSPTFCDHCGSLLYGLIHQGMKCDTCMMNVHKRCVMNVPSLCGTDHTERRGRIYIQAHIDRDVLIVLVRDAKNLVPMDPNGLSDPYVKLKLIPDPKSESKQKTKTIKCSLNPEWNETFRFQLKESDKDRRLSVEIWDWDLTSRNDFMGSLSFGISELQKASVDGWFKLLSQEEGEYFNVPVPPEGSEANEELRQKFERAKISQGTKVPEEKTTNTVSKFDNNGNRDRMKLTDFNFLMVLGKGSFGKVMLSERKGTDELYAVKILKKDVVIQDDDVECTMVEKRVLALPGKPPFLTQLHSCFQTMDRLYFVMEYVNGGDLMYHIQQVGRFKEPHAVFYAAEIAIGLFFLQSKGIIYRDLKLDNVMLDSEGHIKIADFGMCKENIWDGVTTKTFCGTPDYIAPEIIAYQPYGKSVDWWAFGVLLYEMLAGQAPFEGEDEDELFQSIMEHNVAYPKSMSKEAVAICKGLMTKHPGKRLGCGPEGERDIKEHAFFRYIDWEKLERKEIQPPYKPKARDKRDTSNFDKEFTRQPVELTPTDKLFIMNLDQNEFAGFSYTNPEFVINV
Chain of Serine/threonine-protein kinase N1 (Homo sapiens) (Q16512 2-942 limits assumed): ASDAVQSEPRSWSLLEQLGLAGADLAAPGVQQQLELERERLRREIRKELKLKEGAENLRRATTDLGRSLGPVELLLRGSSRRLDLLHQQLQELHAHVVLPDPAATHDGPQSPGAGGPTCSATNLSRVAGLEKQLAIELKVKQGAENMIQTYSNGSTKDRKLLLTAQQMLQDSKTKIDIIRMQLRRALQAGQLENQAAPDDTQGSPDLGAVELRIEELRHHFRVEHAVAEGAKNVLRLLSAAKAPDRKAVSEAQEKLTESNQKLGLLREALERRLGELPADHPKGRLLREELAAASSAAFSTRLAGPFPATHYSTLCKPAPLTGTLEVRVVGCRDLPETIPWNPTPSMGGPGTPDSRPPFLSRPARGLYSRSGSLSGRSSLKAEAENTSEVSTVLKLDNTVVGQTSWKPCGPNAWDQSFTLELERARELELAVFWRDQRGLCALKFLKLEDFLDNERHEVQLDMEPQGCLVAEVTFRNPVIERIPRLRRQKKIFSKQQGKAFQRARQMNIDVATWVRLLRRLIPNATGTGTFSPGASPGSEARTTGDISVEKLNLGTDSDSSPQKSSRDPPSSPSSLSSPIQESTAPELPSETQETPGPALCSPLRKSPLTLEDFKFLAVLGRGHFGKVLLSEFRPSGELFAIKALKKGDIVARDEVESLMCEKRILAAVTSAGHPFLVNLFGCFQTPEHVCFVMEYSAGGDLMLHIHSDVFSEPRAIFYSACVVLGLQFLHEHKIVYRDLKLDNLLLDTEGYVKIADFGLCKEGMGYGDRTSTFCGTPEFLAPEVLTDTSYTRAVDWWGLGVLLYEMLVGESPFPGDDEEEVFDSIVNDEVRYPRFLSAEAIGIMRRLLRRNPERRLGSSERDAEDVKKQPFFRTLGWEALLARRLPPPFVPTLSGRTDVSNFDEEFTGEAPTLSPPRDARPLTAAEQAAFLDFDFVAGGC
Chain of Protein kinase C delta type (Homo sapiens) (Q05655 whole entry, looked up): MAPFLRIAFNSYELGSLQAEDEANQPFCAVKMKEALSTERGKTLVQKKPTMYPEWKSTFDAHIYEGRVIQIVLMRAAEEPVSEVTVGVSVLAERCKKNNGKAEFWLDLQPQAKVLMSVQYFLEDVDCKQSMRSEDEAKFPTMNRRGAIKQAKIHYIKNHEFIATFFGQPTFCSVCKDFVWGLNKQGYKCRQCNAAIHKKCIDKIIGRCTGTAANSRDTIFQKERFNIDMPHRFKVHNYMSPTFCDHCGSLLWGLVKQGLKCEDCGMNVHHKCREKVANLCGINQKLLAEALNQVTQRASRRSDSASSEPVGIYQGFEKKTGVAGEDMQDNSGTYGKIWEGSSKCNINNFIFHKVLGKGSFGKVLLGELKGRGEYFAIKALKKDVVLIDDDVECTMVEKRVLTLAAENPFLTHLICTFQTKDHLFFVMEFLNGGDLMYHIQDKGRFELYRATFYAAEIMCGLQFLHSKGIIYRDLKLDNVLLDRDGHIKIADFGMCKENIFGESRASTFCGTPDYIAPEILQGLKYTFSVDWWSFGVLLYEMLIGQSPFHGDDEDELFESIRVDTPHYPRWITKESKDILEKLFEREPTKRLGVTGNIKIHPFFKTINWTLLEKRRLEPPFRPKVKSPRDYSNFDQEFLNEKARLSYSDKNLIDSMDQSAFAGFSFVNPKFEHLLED
Chain of Protein kinase C eta type (Homo sapiens) (P24723 whole entry): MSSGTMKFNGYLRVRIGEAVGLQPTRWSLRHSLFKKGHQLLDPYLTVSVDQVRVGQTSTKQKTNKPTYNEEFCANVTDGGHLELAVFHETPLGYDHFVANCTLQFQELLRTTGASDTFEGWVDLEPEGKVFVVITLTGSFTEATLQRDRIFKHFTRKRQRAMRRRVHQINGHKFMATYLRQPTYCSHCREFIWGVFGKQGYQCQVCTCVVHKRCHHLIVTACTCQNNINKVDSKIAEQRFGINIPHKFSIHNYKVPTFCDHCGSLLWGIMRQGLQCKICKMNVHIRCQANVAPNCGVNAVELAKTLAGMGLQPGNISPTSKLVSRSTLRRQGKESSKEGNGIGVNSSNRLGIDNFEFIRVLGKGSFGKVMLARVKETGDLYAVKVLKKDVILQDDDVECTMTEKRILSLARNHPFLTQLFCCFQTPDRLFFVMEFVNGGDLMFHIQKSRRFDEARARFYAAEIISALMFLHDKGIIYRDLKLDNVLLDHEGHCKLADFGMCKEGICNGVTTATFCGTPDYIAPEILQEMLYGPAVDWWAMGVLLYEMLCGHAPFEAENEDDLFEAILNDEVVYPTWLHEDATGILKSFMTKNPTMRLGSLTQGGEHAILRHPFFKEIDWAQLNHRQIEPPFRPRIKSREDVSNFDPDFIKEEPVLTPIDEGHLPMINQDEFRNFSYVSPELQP

IC50 [1]	IC50 (RAW264.7 [3])	inhibition [4]	Structure (SMILES)	inhibition at 7.5 µM (RAW264.7 [2])	viability at 20 h, 7.5 µM [15]	other results
< 100 nM	3100 nM	–	Oc1ccc(C2=NN(c3cccc(Cl)c3)C(c3ccc(O)c(F)c3)C2)c(O)c1 (stereo unspecified)	87%	–	–
–	2900 nM	–	Oc1ccc(C2CC(c3ccccc3O)=NN2c2cccc(Cl)c2)cc1F (stereo unspecified)	86%	–	–
–	300 nM	27.6%	Oc1ccc(C2=NN(c3ccc(Cl)cc3)C(c3ccc(Cl)cc3)C2)cc1O (stereo unspecified)	100%	94%	inhibition [5]: inactive; inhibition [6]: inactive; inhibition [7]: inactive; inhibition [8]: inactive; inhibition [9]: inactive; inhibition [10]: 11%; inhibition [11]: inactive; inhibition [12]: inactive; inhibition [13]: 11%; inhibition [14]: 1%
–	800 nM	–	COc1cc(/C=C/C(=O)CC(=O)/C=C/c2ccc(O)c(OC)c2)ccc1O [CURCUMIN]	97%	–	–
6500 nM	–	9.3%	Oc1cccc(C2=NN(c3ccc(Cl)cc3)C(c3ccc(Cl)cc3)C2)c1 (stereo unspecified)	45%	91%	–
–	–	24.9%	Oc1ccc(C2=NN(c3ccc(Cl)cc3)C(c3ccc(Cl)cc3)C2)cc1 (stereo unspecified)	62.4%	99%	–
–	–	30.5%	Oc1ccc(C2=NN(c3ccccc3Cl)C(c3ccccc3Cl)C2)cc1 (stereo unspecified)	34%	92%	–
4300 nM	–	14.8%	Oc1ccc(C2=NN(c3ccc(Cl)cc3)C(c3ccc(Cl)cc3)C2)c(O)c1 (stereo unspecified)	31.4%	88%	IC50 [16]: 9700 nM; Ratio IC50 (Homo sapiens): 2.2
400 nM	–	29%	Oc1ccc(C2=NN(c3cccc(Cl)c3)C(c3cccc(Cl)c3)C2)cc1 (stereo unspecified)	31.5%	86%	IC50 [16]: 4100 nM; Ratio IC50 (Homo sapiens): 10.2
< 100 nM	–	18.6%	Oc1ccc(C2=NN(c3ccc(Cl)cc3)C(c3cccc(Cl)c3)C2)cc1 (stereo unspecified)	34%	96%	–
< 100 nM	–	22.8%	Oc1ccc(C2=NN(c3cccc(Cl)c3)C(c3ccc(Cl)cc3)C2)cc1 (stereo unspecified)	42.8%	91%	–
